In US11814519B2, “Nitric oxide-releasing 3D-printing compositions and uses thereof” (Virginia Commonwealth University, priority 2020, dated 2023):

Key:
[1] = Optical images of a thin printed layer of donor-loaded silicone rubber soaked in phosphate buffered saline-EDTA (dissolution of donor particles); format: physicochemical; settings: thin printed layer soaked in PBSE
Description: FIG. 4A-C is optical images of a thin layer of S-nitroso-N-acetylpenicillamine-doped silicone rubber before soaking (A) and after 24 h (B) and 48 h (C) of soaking in phosphate buffered saline-EDTA.
FIG. 7A-C is bright-field optical images of a thin layer of S-nitrosoglutathione-loaded silicon rubber before and after soaking in phosphate buffered saline-EDTA.

[2] = Solubility of the NO donor in solvents and in the silicone ink; format: physicochemical; settings: silicone ink ingredients
[3] = cited from earlier work

Row | time required for dissolution of donor particles in the thin printed layer ([1]; optical images) | solubility in the silicone rubber ink [2] | time for dissolution of donor particles in the thin printed layer ([1]; optical images (FIG. 7)) | SMILES | solvents in which the donor is soluble [3] | water solubility relative to SNAP ([3]; water)
1 | 3 days | not dissolved in the ink ingredients |  | CC(=O)N[C@H](C(=O)O)C(C)(C)SN=O (racemic) [SNAP, S-nitroso-N-acetylpenicillamine] | most soluble in organic solvents such as methanol and tetrahydrofuran | 
2 |  | not soluble | dissolved within a day | N[C@@H](CCC(=O)N[C@@H](CSN=O)C(=O)NCC(=O)O)C(=O)O [GSNO, S-nitrosoglutathione] | only appreciably dissolved in water and DMSO | much higher
